Measured values from patent US9511073B2, “Aromatic amides and uses thereof” (TAXIS Pharmaceuticals, Inc., priority 2011, dated 2016).
≈ marks a conversion by molar mass, not a printed value.

Test system: Staphylococcus aureus (Isolate ID ATCC 29213)
Assay: Bacterial assay: MIC by broth microdilution or agar dilution (CLSI), S. aureus ATCC 29213
Format: cell-based
Conditions: S. aureus (ATCC29213)
Protocol: Compounds are tested for antimicrobial activity by susceptibility testing in liquid or on solid media. Minimum inhibitory concentrations (MICs) for compounds against each strain are determined by the broth microdilution or agar dilution method according to the guidelines of the Clinical Laboratories and Standards Institute, formerly the National Committee for Clinical Laboratory Standards (Clinical Laboratories and Standards Institute. Methods for Dilution Antimicrobial Susceptibility Tests for Bacteria That Grow Aerobically; Approved Standard—Seventh Edition. Document M7-A7. CLSI, Wayne, Pa., 2006; Clinical Laboratories and Standards Institute). The bacterial strains tested include S. aureus (Staphylococcus aureus (Isolate ID ATCC 29213)) and an FtsZ mutant of this isolate (FtsZ-G196A Staphylococcus aureus (Isolate ID GG/190723/sa/1.2)). Compound MICs were determined to be in the following activity ranges “A” activity≦0.25 μg/mL; “B” activity>0.25 μg/mL-1.0 μg/mL; “C” activity>1.0 μg/mL-16 μg/mL; “D” activity>16 μg/mL and ND=not determined. The bracketed entries indicate entantiomer(s) and their activity.

SMILES	S. aureus MIC (μg/mL) Activity Range
NC(=O)c1c(F)ccc(OC(CC(O)CO)c2nc(-c3ccc(C(F)(F)F)cc3)c(Br)o2)c1F (centres unmarked) [Compound 148, 3-(1-(5-bromo-4-(4-(trifluoromethyl)phenyl)oxazol-2-yl)-3,4-dihydroxybutoxy)-2,6-difluorobenzamide]	C (activity>1.0 μg/mL-16 μg/mL)

Same assay, conditions: Staphylococcus aureus, ATCC29213, read-out: S. aureus MIC (μg/mL) Activity Range, S. aureus (ATCC29213)

SMILES	MIC
CNC(=O)C(Oc1ccc(F)c(C(N)=O)c1F)c1nc(-c2ccc(C(F)(F)F)cc2)c(Cl)o1 (centres unmarked) [Compound 51, 3-(1-(5-chloro-4-(4-(trifluoromethyl)phenyl)oxazol-2-yl)-2-(methylamino)-2-oxoethoxy)-2,6-difluorobenzamide]	1 to 16 µg/mL (≈ 2.04 to 32.7 µM)
Cn1ccnc1CNC(=O)OCC(Oc1ccc(F)c(C(N)=O)c1F)c1nc(-c2ccc(C(F)(F)F)cc2)c(Br)o1 (centres unmarked) [Compound 201, 2-(5-bromo-4-(4-(trifluoromethyl)phenyl)oxazol-2-yl)-2-(3-carbamoyl-2,4-difluorophenoxy)ethyl ((1-methyl-1H-imidazol-2-yl)methyl)carbamate]	0.25 to 1 µg/mL (≈ 0.388 to 1.55 µM)
NC(=O)c1c(F)ccc(OC(CO)c2nc(-c3ccc(C(F)(F)F)cn3)c(Br)o2)c1F (centres unmarked) [Compound 79, 3-(1-(5-bromo-4-(5-(trifluoromethyl)pyridin-2-yl)oxazol-2-yl)-2-hydroxyethoxy)-2,6-difluorobenzamide]	1 to 16 µg/mL (≈ 1.97 to 31.5 µM)
Cc1nc(-c2nc(C(CO)Oc3ccc(F)c(C(N)=O)c3F)oc2Br)sc1C (centres unmarked) [Compound 240, 3-(1-(5-bromo-4-(4,5-dimethylthiazol-2-yl)oxazol-2-yl)-2-hydroxyethoxy)-2,6-difluorobenzamide]	> 16 µg/mL
CC(=O)OCC(Oc1ccc(F)c(C(N)=O)c1F)c1nc(-c2ccc(Cl)cc2)c(Br)o1 (centres unmarked) [Compound 36]	0.25 to 1 µg/mL (≈ 0.485 to 1.94 µM)
CS(=O)(=O)OCC(Oc1ccc(F)c(C(N)=O)c1F)c1nc(-c2ccc(C(F)(F)F)cc2)c(Cl)o1 (centres unmarked) [Compound 45, 2-(3-carbamoyl-2,4-difluorophenoxy)-2-(5-chloro-4-(4-(trifluoromethyl)phenyl)oxazol-2-yl)ethyl methanesulfonate]	1 to 16 µg/mL
CCCc1oc(C(C)Oc2ccc(F)c(C(N)=O)c2F)nc1-c1ccc(OC)cc1 (centres unmarked) [Compound 15]	0.25 to 1 µg/mL (≈ 0.6 to 2.4 µM)
CC(=O)NCC(Oc1ccc(F)c(C(N)=O)c1F)c1nc(-c2ccc(C(F)(F)F)cc2)co1 (centres unmarked) [Compound 282, 3-(2-acetamido-1-(4-(4-(trifluoromethyl)phenyl)oxazol-2-yl)ethoxy)-2,6-difluorobenzamide]	> 16 µg/mL
NC(=O)c1c(F)ccc(OC(COC(=O)Nc2nnn[nH]2)c2nc(-c3ccc(C(F)(F)F)cc3)c(Br)o2)c1F (centres unmarked) [Compound 177, 2-(5-bromo-4-(4-(trifluoromethyl)phenyl)oxazol-2-yl)-2-(3-carbamoyl-2,4-difluorophenoxy)ethyl 1H-tetrazol-5-ylcarbamate]	> 16 µg/mL
CC(=O)OCCCC(Oc1ccc(F)c(C(N)=O)c1F)c1nc(-c2ccc(C(F)(F)F)cc2)c(Br)o1 (centres unmarked) [Compound 89, 4-(5-bromo-4-(4-(trifluoromethyl)phenyl)oxazol-2-yl)-4-(3-carbamoyl-2,4-difluorophenoxy)butyl acetate]	0.25 to 1 µg/mL
CCOC(=O)C(Oc1ccc(F)c(C(N)=O)c1F)c1csc(-c2ccc(C(F)(F)F)cc2)n1 (centres unmarked) [Compound 125, ethyl 2-(3-carbamoyl-2,4-difluorophenoxy)-2-(2-(4-(trifluoromethyl)phenyl)thiazol-4-yl)acetate]	0.25 to 1 µg/mL (≈ 0.514 to 2.06 µM)
NC(=O)c1c(F)ccc(OC(c2nc(-c3ccc(C(F)(F)F)cc3)c(Br)o2)C(O)CO)c1F (centres unmarked) [Compound 189, 3-(1-(5-bromo-4-(4-(trifluoromethyl)phenyl)oxazol-2-yl)-2,3-dihydroxypropoxy)-2,6-difluorobenzamide]	1 to 16 µg/mL (≈ 1.86 to 29.8 µM)
CNC(=O)C(Oc1ccc(F)c(C(N)=O)c1F)c1nc(-c2ccc(Cl)cc2)c(Cl)o1 (centres unmarked) [Compound 49, 3-(1-(5-chloro-4-(4-chlorophenyl)oxazol-2-yl)-2-(methylamino)-2-oxoethoxy)-2,6-difluorobenzamide]	1 to 16 µg/mL (≈ 2.19 to 35.1 µM)
NC(=O)c1c(F)ccc(OC(COCC(=O)O)c2nc(-c3ccc(C(F)(F)F)cc3)c(Br)o2)c1F (centres unmarked) [Compound 86, 2-(2-(5-bromo-4-(4-(trifluoromethyl)phenyl)oxazol-2-yl)-2-(3-carbamoyl-2,4-difluorophenoxy)ethoxy)acetic acid]	> 16 µg/mL
NC(=O)c1c(F)ccc(OC(C(=O)O)c2nc(-c3ccc(Cl)cc3)co2)c1F (centres unmarked) [Compound 12, 2-(3-carbamoyl-2,4-difluorophenoxy)-2-(4-(4-chlorophenyl)oxazol-2-yl)acetic acid]	> 16 µg/mL
Cc1nnc(CNC(=O)OCC(Oc2ccc(F)c(C(N)=O)c2F)c2nc(-c3ccc(C(F)(F)F)cc3)c(Br)o2)o1 (centres unmarked) [Compound 172, 2-(5-bromo-4-(4-(trifluoromethyl)phenyl)oxazol-2-yl)-2-(3-carbamoyl-2,4-difluorophenoxy)ethyl ((5-methyl-1,3,4-oxadiazol-2-yl)methyl)carbamate]	0.25 to 1 µg/mL (≈ 0.387 to 1.55 µM)

SMILES	MIC
CCNC(=O)NCC(Oc1ccc(F)c(C(N)=O)c1F)c1nc(-c2ccc(C(F)(F)F)cc2)co1 (centres unmarked) [Compound 286, 3-(2-(3-ethylureido)-1-(4-(4-(trifluoromethyl)phenyl)oxazol-2-yl)ethoxy)-2,6-difluorobenzamide]	> 16 µg/mL
CCOC(=O)COCC(Oc1ccc(F)c(C(N)=O)c1F)c1nc(-c2ccc(C(F)(F)F)cc2)c(Br)o1 (centres unmarked) [Compound 84, ethyl 2-(2-(5-bromo-4-(4-(trifluoromethyl)phenyl)oxazol-2-yl)-2-(3-carbamoyl-2,4-difluorophenoxy)ethoxy)acetate]	0.25 to 1 µg/mL (≈ 0.421 to 1.69 µM)
CCCc1oc(C(C)Oc2ccc(F)c(C(N)=O)c2F)nc1-c1ccc(OC(F)(F)F)cc1 (centres unmarked) [Compound 20, 2,6-difluoro-3-(1-(5-propyl-4-(4-(trifluoromethoxy)phenyl)oxazol-2-yl)ethoxy)benzamide]	< 0.25 µg/mL
NC(=O)c1c(F)ccc(OC(COC(=O)N2CCOCC2)c2nc(-c3ccc(C(F)(F)F)cc3)c(Br)o2)c1F (centres unmarked) [Compound 160, 2-(5-bromo-4-(4-(trifluoromethyl)phenyl)oxazol-2-yl)-2-(3-carbamoyl-2,4-difluorophenoxy)ethyl morpholine-4-carboxylate]	< 0.25 µg/mL
NCC(Oc1ccc(F)c(C(N)=O)c1F)c1nc(-c2ccc(C(F)(F)F)cc2)co1 (centres unmarked) [Compound 281, 3-(2-amino-1-(4-(4-(trifluoromethyl)phenyl)oxazol-2-yl)ethoxy)-2,6-difluorobenzamide]	> 16 µg/mL
CS(=O)(=O)N1CCN(C(=O)OCC(Oc2ccc(F)c(C(N)=O)c2F)c2nc(-c3ccc(C(F)(F)F)cc3)c(Br)o2)C1=O (centres unmarked) [Compound 169, 2-(5-bromo-4-(4-(trifluoromethyl)phenyl)oxazol-2-yl)-2-(3-carbamoyl-2,4-difluorophenoxy)ethyl 3-(methylsulfonyl)-2-oxoimidazolidine-1-carboxylate]	1 to 16 µg/mL (≈ 1.43 to 22.9 µM)
NC(=O)c1c(F)ccc(OC(CNC(=O)Cc2cccnc2)c2nc(-c3ccc(C(F)(F)F)cc3)c(Br)o2)c1F (centres unmarked) [Compound 298, 3-(1-(5-bromo-4-(4-(trifluoromethyl)phenyl)oxazol-2-yl)-2-(2-(pyridin-3-yl)acetamido)ethoxy)-2,6-difluorobenzamide]	1 to 16 µg/mL (≈ 1.6 to 25.6 µM)
CCC(Oc1ccc(F)c(C(N)=O)c1F)c1nc(CCO)oc1Br (centres unmarked) [Compound 122, 3-(1-(5-bromo-2-(2-hydroxyethyl)oxazol-4-yl)propoxy)-2,6-difluorobenzamide]	> 16 µg/mL
NC(=O)c1c(F)ccc(OC(CO)c2nc(C3CCOCC3)co2)c1F (centres unmarked) [Compound 182, 2,6-difluoro-3-(2-hydroxy-1-(4-(tetrahydro-2H-pyran-4-yl)oxazol-2-yl)ethoxy)benzamide]	> 16 µg/mL
NC(=O)c1c(F)ccc(OC(CNC(=O)OCc2ccccc2)c2nc(-c3ccc(C(F)(F)F)cc3)c(Br)o2)c1F (centres unmarked) [Compound 280, benzyl (2-(5-bromo-4-(4-(trifluoromethyl)phenyl)oxazol-2-yl)-2-(3-carbamoyl-2,4-difluorophenoxy)ethyl)carbamate]	0.25 to 1 µg/mL (≈ 0.39 to 1.56 µM)
NC(=O)c1c(F)ccc(OC(CO)c2nc(-c3cccc(O)c3)c(Br)o2)c1F (centres unmarked) [Compound 118, 3-(1-(5-bromo-4-(3-hydroxyphenyl)oxazol-2-yl)-2-hydroxyethoxy)-2,6-difluorobenzamide]	> 16 µg/mL
NC(=O)c1c(F)ccc(OC(COC(=O)NCc2cccnc2)c2nc(-c3ccc(C(F)(F)F)cc3)c(Br)o2)c1F (centres unmarked) [Compound 166, 2-(5-bromo-4-(4-(trifluoromethyl)phenyl)oxazol-2-yl)-2-(3-carbamoyl-2,4-difluorophenoxy)ethyl (pyridin-3-ylmethyl)carbamate]	< 0.25 µg/mL
NC(=O)c1c(F)ccc(O[C@H](CO)c2nc(-c3ccc4c(c3)CCO4)c(Br)o2)c1F [Compound 253B, (R)-3-(1-(5-bromo-4-(2,3-dihydrobenzofuran-5-yl)oxazol-2-yl)-2-hydroxyethoxy)-2,6-difluorobenzamide]	1 to 16 µg/mL (≈ 2.08 to 33.2 µM)
NC(=O)c1c(F)ccc(OC(COC(=O)NCc2cc[n+]([O-])cc2)c2nc(-c3ccc(C(F)(F)F)cc3)c(Br)o2)c1F (centres unmarked) [Compound 175, 4-((((2-(5-bromo-4-(4-(trifluoromethyl)phenyl)oxazol-2-yl)-2-(3-carbamoyl-2,4-difluorophenoxy)ethoxy)carbonyl)amino)methyl)pyridine 1-oxide]	1 to 16 µg/mL (≈ 1.52 to 24.3 µM)
Cc1nc(C)c(-c2nc(C(CO)Oc3ccc(F)c(C(N)=O)c3F)oc2Br)s1 (centres unmarked) [Compound 245, 3-(1-(5-bromo-4-(2,4-dimethylthiazol-5-yl)oxazol-2-yl)-2-hydroxyethoxy)-2,6-difluorobenzamide]	> 16 µg/mL
